Earlier results on 1 compound are cited in patent US6136845A (The Texas A&M University System, priority 1998, dated 2000).

One series deals with CYP1A1. Particulars: result in words; cited from earlier work.
The test system of a further series is PR. Particulars: 21 to 25 day-old female Sprague-Dawley rat uterus; cited from earlier work.
The conditions of series [1]: in vivo; cited from earlier work.
The test system of series [2] is MCF-7 human breast cancer cell lines. Particulars: MCF-7 cells in culture; cited from earlier work.
Series [3] deals with 17β-estradiol (E2)-induced responses. Particulars: rats, mice; cited from earlier work.
A further series deals with mammary tumor. As to conditions: rodent models; cited from earlier work.
A further series concerns ER. As to conditions: 21 to 25 day-old female Sprague-Dawley rat uterus; cited from earlier work.

Regarding `Clc1cc2c(cc1Cl)Oc1cc(Cl)c(Cl)cc1O2` [TCDD, 2,3,7,8-tetrachlorodibenzo-p-dioxin, reference compound], the “induction of CYP1A1” value in the series with CYP1A1 was “induces toxic and biochemical responses”. Also, the “nuclear and cytosolic progesterone receptor (PR) binding” value with PR is given as “dose-dependent decrease”. In series [1], the hepatocarcinogenicity result is “too hepatocarcinogenic”. The antiestrogenic activity result in series [2] and in series [3] was “effective antiestrogen” in each case. Further, in the series with mammary tumor, the mammary tumor growth entry is “inhibit mammary tumor growth”. In the series with ER, the “nuclear and cytosolic ER binding” value is listed as “dose-dependent decrease”.
